pEC50, pIC50, pKd, pKi: −log10 of the molar value.
Columns and labels:
Adenosine receptor A1 = biological target: T1, Adenosine receptor A1 (Homo sapiens, UniProt P30542); assay: Binding affinity to human A1AR assessed as inhibition constant
T1 sequence (P30542 whole entry): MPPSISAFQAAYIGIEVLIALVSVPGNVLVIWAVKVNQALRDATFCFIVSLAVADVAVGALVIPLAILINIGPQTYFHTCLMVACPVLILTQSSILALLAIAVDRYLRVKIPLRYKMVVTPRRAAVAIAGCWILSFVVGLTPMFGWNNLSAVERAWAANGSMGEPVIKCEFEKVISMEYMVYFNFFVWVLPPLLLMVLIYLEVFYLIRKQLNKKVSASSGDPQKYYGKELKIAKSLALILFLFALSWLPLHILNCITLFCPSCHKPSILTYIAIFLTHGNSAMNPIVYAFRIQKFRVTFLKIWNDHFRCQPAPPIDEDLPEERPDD

[1] = biological target: Proto-oncogene tyrosine-protein kinase receptor Ret (Homo sapiens, UniProt P07949); assay: Inhibition of rearranged during transfection kinase (unknown origin)
[2] = biological target: T2, Histone-lysine N-methyltransferase ASH1L (Homo sapiens, UniProt Q9NR48); assay: Binding affinity to ASH1L SET domain (2069 to 2288 residues) (unknown origin) assessed as dissociation constant by ITC analysis
[3] = biological target: T3, Muscarinic acetylcholine receptor M1 (Homo sapiens, UniProt P11229); assay: Agonist activity at human M1 receptor; assay type: functional
T3 sequence (P11229 whole entry): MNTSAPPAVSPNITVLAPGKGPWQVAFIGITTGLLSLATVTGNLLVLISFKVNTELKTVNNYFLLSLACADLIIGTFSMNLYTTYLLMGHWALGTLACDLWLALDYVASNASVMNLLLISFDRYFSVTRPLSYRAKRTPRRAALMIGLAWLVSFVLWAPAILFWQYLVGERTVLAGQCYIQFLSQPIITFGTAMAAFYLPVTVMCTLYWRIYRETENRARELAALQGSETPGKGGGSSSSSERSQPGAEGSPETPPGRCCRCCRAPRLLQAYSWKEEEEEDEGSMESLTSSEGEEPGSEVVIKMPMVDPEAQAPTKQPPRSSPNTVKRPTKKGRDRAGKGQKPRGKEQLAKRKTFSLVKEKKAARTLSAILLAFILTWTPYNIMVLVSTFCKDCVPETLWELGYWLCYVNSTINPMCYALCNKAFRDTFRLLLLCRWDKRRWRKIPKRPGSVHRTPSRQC

[4] = biological target: YEATS domain-containing protein 4 (Homo sapiens, UniProt O95619); assay: Inhibition of human N-terminal GST tagged GAS41 (1 to 148 residues) incubated for 1 hr by fluorescence polarization assay
[5] = biological target: T2, Histone-lysine N-methyltransferase ASH1L; assay: Inhibition of N-terminal Mocr-tagged ASH1L (2069 to 2288 residues) (unknown origin) expressed in Escherichia coli BL21 (DE3) by […]

Sequence of YEATS domain-containing protein 4 (O95619 whole entry, the tested form may be a part): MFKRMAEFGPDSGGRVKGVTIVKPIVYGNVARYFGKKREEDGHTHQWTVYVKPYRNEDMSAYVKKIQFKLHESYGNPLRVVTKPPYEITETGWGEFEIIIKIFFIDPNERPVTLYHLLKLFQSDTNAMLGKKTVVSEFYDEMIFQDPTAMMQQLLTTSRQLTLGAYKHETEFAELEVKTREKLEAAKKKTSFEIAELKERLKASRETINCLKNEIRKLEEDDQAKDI
Sequence of Proto-oncogene tyrosine-protein kinase receptor Ret (P07949 whole entry, the tested form may be a part): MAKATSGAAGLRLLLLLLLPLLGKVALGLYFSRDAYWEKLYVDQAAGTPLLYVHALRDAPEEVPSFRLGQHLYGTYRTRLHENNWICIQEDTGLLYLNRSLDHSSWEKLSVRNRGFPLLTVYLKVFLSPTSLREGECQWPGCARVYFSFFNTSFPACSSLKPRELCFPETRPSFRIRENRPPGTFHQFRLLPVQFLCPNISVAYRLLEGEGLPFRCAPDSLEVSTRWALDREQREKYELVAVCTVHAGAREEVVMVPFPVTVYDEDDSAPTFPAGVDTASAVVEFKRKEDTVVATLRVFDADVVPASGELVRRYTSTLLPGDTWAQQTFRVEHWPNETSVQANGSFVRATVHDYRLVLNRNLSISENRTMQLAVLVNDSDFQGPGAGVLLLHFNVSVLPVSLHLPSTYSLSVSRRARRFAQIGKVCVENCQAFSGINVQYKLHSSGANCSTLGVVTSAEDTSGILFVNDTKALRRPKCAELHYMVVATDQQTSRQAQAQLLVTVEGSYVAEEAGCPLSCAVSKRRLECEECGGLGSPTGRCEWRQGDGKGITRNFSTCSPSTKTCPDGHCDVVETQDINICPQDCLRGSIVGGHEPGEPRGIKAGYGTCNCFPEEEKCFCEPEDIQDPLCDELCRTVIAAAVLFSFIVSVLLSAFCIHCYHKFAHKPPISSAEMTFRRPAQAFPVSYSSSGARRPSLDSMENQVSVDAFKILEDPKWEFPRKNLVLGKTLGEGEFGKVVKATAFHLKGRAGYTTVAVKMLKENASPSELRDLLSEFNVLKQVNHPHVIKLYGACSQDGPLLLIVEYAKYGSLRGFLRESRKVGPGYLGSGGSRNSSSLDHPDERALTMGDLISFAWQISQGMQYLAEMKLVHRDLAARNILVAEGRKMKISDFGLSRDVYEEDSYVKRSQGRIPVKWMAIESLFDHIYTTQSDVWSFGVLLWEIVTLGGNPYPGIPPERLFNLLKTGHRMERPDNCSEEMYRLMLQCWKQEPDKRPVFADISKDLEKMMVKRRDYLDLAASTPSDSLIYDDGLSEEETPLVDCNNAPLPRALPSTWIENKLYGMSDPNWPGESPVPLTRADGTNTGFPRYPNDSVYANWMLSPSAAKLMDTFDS

`CC(=O)Nc1nc2ccccc2s1` was tested, and the pKi (Adenosine receptor A1) was 4.96.

Compound `Nc1ncnc2[nH]ncc12` has a pIC50 [1] of 5.04.

For `NC(=S)c1cccc(-n2cccc2)c1`, the pKd [2] was < 3.00.

Work on `CCOC(=O)N1CCC(N2CCC(C(N)=O)CC2)CC1` yielded a pEC50 [3] of 5.49.

With `O=C(Nc1ccc(C(=O)N2CC(c3nc4ccccc4s3)C2)s1)[C@@H]1C[C@@H](OCCCCCO[C@H]2CN[C@H](C(=O)Nc3ccc(C(=O)N4CC(c5nc6ccccc6s5)C4)s3)C2)CN1` the pIC50 [4] was 7.02.

For `CN1CC(C(=O)NCc2ccc3c(-c4cccc(C(N)=S)c4)cn(C4CCC(S(=O)(=O)C(F)(F)F)CC4)c3c2)C1` (stereo unspecified), the pIC50 [5] was 6.10.
